Measured values taken from paper PMC5761851, “Application of a phenotypic drug discovery strategy to identify biological and chemical starting points for inhibition of TSLP production in lung epithelial cells” (PLoS ONE, 2018).
Where “and” joins values, the source holds several entries; their conditions need not be identical. Equal values may be shown once. Read-outs that look alike come from different tables or passages of the source.

Columns and labels:
[1] = test system: TSLP production in NHBE cells; assay: TSLP HTRF assay (TSLP production in poly I:C / IL-4 stimulated NHBE cells); assay type: cell-based, human
Procedure: For dose response curves determinations, stocks of test compounds at a concentration of 1.33x10^-3 M in DMSO were sequentially diluted at 1:4 dilution steps before further 1/50 dilution in BEBM medium containing 1x ITS and 0.1% BSA. For the highest 4 μM concentration test compounds were resuspended in DMSO at a concentration of 2.5x10^-3 M and diluted 1/25 in BEBM medium containing 1x ITS and 0.1% BSA before adding 1 μl to the wells containing the cells.
All subsequent steps were automated using a Sciclone® G3 workstation (Perkin Elmer) with a Twister™ II robot (Perkin Elmer). […] 1 μl of test compound solution prepared at 25x concentration was added to the wells containing NHBE cells. The plates were then incubated during 90 minutes at 37°C, 5% CO2, 90% humidity before adding poly I:C (Invivogen HMW Tirl-pic-5) and human IL-4 (Peprotech 200–04) stimulus in 4 μl of BEBM medium containing 1x ITS, 0.1% BSA and 0.1% DMSO using a Multidrop™. […] Cells were then incubated for 24h in the presence of test compounds and stimulus at 37°C, 5% CO2 and 90% humidity conditions. After the 24h incubation period the plates were transferred to a CyBi®-Well platform (CyBio AG) to collect 10 μl of the supernatants which were transferred to a new plate. TSLP levels in the supernatant were determined using a homogeneous Time-Resolved Fluorescence (HTRF) assay custom developed by Cisbio. The assay was based in the use of a donor dye (europium cryptate) coupled to a monoclonal anti-TSLP antibody and an acceptor dye (d2) coupled to a second polyclonal anti-TSLP antibody. […] 10 μl of the resulting solution was then used to determine TSLP levels as described above.
The standard curve was built with eight points prepared in ITS/BSA in BEBM medium without supplements, starting at 700 pg/ml and diluted 1:2, with medium alone being zero TSLP. Fitting model corresponded to equation 100 of Excel fit software. Data from the primary phenotypic screen was visualized using Vortex (Dotmatics). […] For compound selection the maximum inhibition of the two individual duplicate values was taken into account. Dose response confirmation was performed at single point in the 2 donors tested. 9 point curves were run starting at 4 μM concentration by doing serial 1:4 dilutions in cells derived from both donors.

[2] = test system: TSLP mRNA levels in NHBE cells; assay: TSLP mRNA real-time PCR (qPCR) in NHBE cells; assay type: cell-based, human; design: TSLP mRNA upregulation (% versus control) / % Inhibition of mRNA: dose or concentration left out as unconfirmed; conditions: for % Inhibition of mRNA at [4 μM] ± SD: NHBE donor #1, 6 h stimulation; for % Inhibition of mRNA: individual values, donor #1
[3] = test system: 125 representative kinases; assay: 125 kinase selectivity panel (overall); assay type: biochemical; conditions: 10 μM
Procedure: Kinase selectivity was evaluated at Eurofins Pharma Discovery Services using a selection of 125 representative kinases tested at a concentration of 10 μM in duplicate (S3 Table). IC50 values for selected activities were further characterized at 9 duplicate concentrations. DNA-PK activity was determined at the SelectScreen® Biochemical kinase Profiling Service of Thermo Fisher Scientific.

[4] = test system: Production of TNFα in THP-1 cells; assay: p38-dependent TNF production in THP-1 cells; assay type: cell-based
[5] = target: T1, COX2 (Homo sapiens, UniProt P35354); assay: BioPrint panel: COX2 (h); assay type: biochemical; conditions: 1 micromolar, read-out: percentage of inhibition of activity
T1 construct: purchased Eurofins Pharma Discovery Services (KinaseProfiler; Cerep BioPrint panel)
Text: (§1) Supplement pone.0189247.s004.xlsx, sheet "Bioprint Selectivity Panel" | column: %

[6] = target: T2, A2B (Homo sapiens, UniProt P29275); assay: BioPrint panel: A2B (h) (antagonist); assay type: binding; conditions: 1 micromolar, read-out: percentage of inhibition of activity
T2 construct: purchased Eurofins Pharma Discovery Services (KinaseProfiler; Cerep BioPrint panel)
Text: as §1

[7] = test system: TNF-alpha; assay: BioPrint panel: TNF-alpha (h) (agonist); assay type: binding, human; conditions: 1 micromolar
Text: as §1

[8] = test system: 104 binding assays and 41 cell based and enzyme assays; assay: BioPrint general selectivity panel; conditions: 1 μM
Procedure: General selectivity profiling was performed at Eurofins Pharma Discovery Services using the BioPrint® panel and reference database. The panel included 104 binding assays (non-peptide, peptide and nuclear receptors, ion channels and amine transporters) and 41 cell based and enzyme assays (including 10 kinases, 9 proteases and 5 phosphodiesterases) (S4 Table). More than 70% were human targets. Compound 4 was tested at a concentration of 1 μM in duplicate (10 μM for P-gp and CYP enzymes). The resulting bioactivity fingerprint was compared with a database of >2,500 BioPrint marketed drugs and reference compounds. IC50 values for selected activities were further characterized at 8 concentrations in duplicate.

[9] = test system: CHO-K1 cells; assay: CHO-K1 viability (ATPlite); assay type: cell-based; conditions: 25 μM
Procedure: The viability of NHBE and CHO-K1 cells was quantified using ATP as an indirect read out of the potential cytotoxicity of the compounds. […] Plates were shaken and covered with aluminium foil for 25 min. Luminescence was measured in an Envision reader (Perkin Elmer). Evaluation of viability in CHO-K1 cells was used as an internal compound cytotoxicity standard across cellular assays. […] The plates were incubated for 24 h at 37°C in 5% CO2. After the incubation period, the culture medium was removed and washed with 100 μl of DPBS. Test compounds were dissolved and serially diluted in 100% DMSO. A final 1/100 dilution of each concentration was performed using F12 culture medium with 0.5% FBS. A volume of 100 μl culture medium containing the compounds or 1% DMSO (for control wells) was added to the wells containing the cells and the plate was incubated again 24h. After 24h of compound exposure, cells were washed with DPBS. Then, 100 μl of PBS were added, followed by the addition of 100 μl of ATPlite™ reagent. The plate was shaken for 25 minutes using a microtiter plate shaker. Luminescence was measured using a Luminoskan Ascent luminometer (Thermo Fisher Scientific).
For CHO-K1 viability assays, a standard curve of cells was included in the plate. Luminescence values versus cell number were plotted and the data adjusted to a linear equation. Luminescence values of the samples were interpolated to obtain number of cells. IC50 values were obtained by non-linear regression using Activity Base software (IDBS) and a four-parameter log equation.

[10] = Homo sapiens, NHBE, 24 h, NHBE cells donor #1, poly I:C / IL-4, 24h, geometric mean, read-out: Inhibition of TSLP protein production (IC50, μM) (95% CI)
[11] = individual values, donor #1, read-out: Inhibition of TSLP production in NHBE (IC50)
[12] = Homo sapiens, THP-1, geometric mean, read-out: Activity in reference cell based assay (IC50, μM) (95% CI) Production of TNFα in THP-1 cells
[13] = Homo sapiens, THP-1, individual values, read-out: Cellular activity (IC50, mM) TNFa production in THP-1

T1 sequence (P35354 18-604): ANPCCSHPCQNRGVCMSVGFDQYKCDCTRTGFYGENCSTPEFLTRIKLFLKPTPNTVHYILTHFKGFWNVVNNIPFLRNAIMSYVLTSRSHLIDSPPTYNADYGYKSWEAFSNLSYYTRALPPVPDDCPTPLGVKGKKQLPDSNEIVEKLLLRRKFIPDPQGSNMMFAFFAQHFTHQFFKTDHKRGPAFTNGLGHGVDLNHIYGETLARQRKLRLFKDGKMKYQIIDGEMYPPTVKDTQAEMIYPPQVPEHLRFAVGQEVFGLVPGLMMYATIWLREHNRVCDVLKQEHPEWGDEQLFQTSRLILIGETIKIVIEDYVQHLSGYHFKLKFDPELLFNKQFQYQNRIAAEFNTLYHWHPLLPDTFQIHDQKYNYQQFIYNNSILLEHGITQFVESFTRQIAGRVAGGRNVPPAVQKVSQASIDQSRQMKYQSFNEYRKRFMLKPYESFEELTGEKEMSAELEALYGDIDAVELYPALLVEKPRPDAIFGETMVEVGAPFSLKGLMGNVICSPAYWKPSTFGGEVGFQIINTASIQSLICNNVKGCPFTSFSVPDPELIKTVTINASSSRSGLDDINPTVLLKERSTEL
T2 sequence (P29275 whole entry): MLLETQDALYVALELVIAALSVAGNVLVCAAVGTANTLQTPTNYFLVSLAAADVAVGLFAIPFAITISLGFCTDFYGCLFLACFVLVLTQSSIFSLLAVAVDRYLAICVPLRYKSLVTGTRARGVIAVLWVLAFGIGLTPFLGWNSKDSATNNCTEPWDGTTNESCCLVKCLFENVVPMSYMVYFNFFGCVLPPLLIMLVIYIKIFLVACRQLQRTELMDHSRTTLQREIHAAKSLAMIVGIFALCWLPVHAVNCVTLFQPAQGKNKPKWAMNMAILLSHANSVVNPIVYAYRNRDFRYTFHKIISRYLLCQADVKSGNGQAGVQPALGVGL

IC50 [1, 10] [µM] | IC50 [1, 11] | inhibition in the rest of the panel [3] | IC50 [4, 12] [µM] | IC50 [4, 13] [µM] | IC50 ([1]; Homo sapiens, NHBE, individual values, donor #1, read-out: Inhibition of TSLP production in NHBE (IC50)) [µM] | IC50 ([4]; individual values, read-out: Cellular activity (IC50, mM) TNFa production in THP-1) [µM] | SMILES | % Inhibition of mRNA at [4 μM] ± SD [2] [%] | % Inhibition of mRNA [2] | inhibition at 1 µM [5] [%] | inhibition at 1 µM [6] [%] | percentage of inhibition of activity [7] [%] | Inhibition of 129 additional activities [8] | Inhibition of CHO viability at [25 μM] % Inhibition ± SD [9] [%]
0.022 | 0.023 µM and 0.009 µM and 0.055 µM | less than 50% | 0.0004 | 0.00045 | – | – | CC(C)(C)N1CCC(c2cc(-c3ccc(F)cc3Cl)c3cc[n+]([O-])c(-c4c(Cl)cccc4Cl)c3n2)CC1 [compound 2] | 79.69 ± 4.76 | 83.056% and 76.316% | – | – | – | – | –
0.172 | 0.211 µM and 0.131 µM | less than 50% | 0.001 | 0.00242 | 0.186 | 0.00132 | Cc1ccc(C(=O)NCC2CC2)cc1-c1ccc2c(c1)NC(=O)C21CCCC1 [compound 3] | 80.07 ± 0.48 | 80.414% and 79.735% | – | – | – | – | –
0.738 | 0.486 µM and 0.72 µM and 1.15 µM | – | 0.002 | 0.002 | – | – | COc1c(NC(=O)c2ccc(C)c(-c3nnc4c(NCC(C)(C)C)nccn34)c2)cc(C(C)(C)C)cc1NS(C)(=O)=O [compound 7, reference compound] | – | – | – | – | – | – | 0.39 ± 11

SMILES | IC50 [1, 10] [µM] | IC50 [1, 11] | inhibition in the rest of the panel [3] | IC50 [4, 12] [µM] | IC50 [4, 13] [µM] | IC50 ([1]; Homo sapiens, NHBE, individual values, donor #1, read-out: Inhibition of TSLP production in NHBE (IC50)) [µM] | IC50 ([4]; individual values, read-out: Cellular activity (IC50, mM) TNFa production in THP-1) [µM] | % Inhibition of mRNA at [4 μM] ± SD [2] [%] | % Inhibition of mRNA [2] | inhibition at 1 µM [5] [%] | inhibition at 1 µM [6] [%] | percentage of inhibition of activity [7] [%] | Inhibition of 129 additional activities [8] | Inhibition of CHO viability at [25 μM] % Inhibition ± SD [9] [%]
Cn1cc(-c2cccc(-c3nc(C(=O)NC4C5CC6CC4CC(O)(C6)C5)c(N)nc3N)c2)cn1 (stereo not drawn) [compound 4] | 0.075 | 0.052 µM and 0.037 µM and 0.178 µM and 0.1 µM and 0.036 µM and 0.147 µM | – | – | – | – | – | 90.44 ± 0.24 | 90.608% and 90.263% | -12.1 | -3 | -2.1 | less than 50% | –
CS(=O)(=O)N1CCN(c2ccc(Nc3ncc(C(N)=O)c(NC4CC4)n3)cc2)CC1 [compound 5] | 0.043 | 0.026 µM and 0.048 µM and 0.028 µM and 0.054 µM and 0.083 µM | – | – | – | – | – | 99.76 ± 0.12 | 99.853% and 99.672% | – | – | – | – | –
